Test results published in paper PMC6219668 (Oncotarget, 2018).

Tested on: panel of nearly 500 cancer cell lines
Assay: Cancer Cell Line Encyclopedia profiling, 3-day CellTiter-Glo
Assay type: cell-based
Set-up: Amax: unit not given here

CN(C)C(=O)c1cc2cnc(Nc3ccc(N4CCNCC4)cn3)nc2n1C1CCCC1 [Ribociclib, 7-cyclopentyl-2-(5-piperazin-1-yl-pyridin-2-ylamino)-7H-pyrrolo[2,3-d]pyrimidine-6-carboxylic acid dimethylamide]
4.43 µM: IC50 (Homo sapiens, 769-P)
0.00254 µM: EC50 (COLO 699)
0.122 µM: EC50 (Homo sapiens, DOHH-2)
0.534 µM: IC50 (Homo sapiens, HGC-27)
2.199: Amax (786o (kidney))
0.00743 µM: EC50 (Homo sapiens, DV-90)
0.475 µM: EC50 (Homo sapiens, COLO-678)
0.467 µM: EC50 (Homo sapiens, G-402)
4.04 µM: IC50 (Homo sapiens, A2780)
2.67 µM: EC50 (Homo sapiens, HPAC) | IC50 (Homo sapiens, HPAC)
8 µM: IC50 (Homo sapiens, A-375)
0.325: Amax (8mgba (central_nervous_system))
> 8 µM: IC50 (COLO 699) | EC50 (COV318) | IC50 (COV318) | EC50 (COV504) | IC50 (COV504) | IC50 (Fu97) | EC50 (GLC82) | IC50 (GLC82) | EC50 (HCC15) | IC50 (HCC15) | EC50 (HEC-6) | IC50 (HEC-6) | EC50 (HEC-251) | IC50 (HEC-251) | IC50 (HEY A8) | EC50 (Homo sapiens, 8-MG-BA) | IC50 (Homo sapiens, 8-MG-BA) | EC50 (Homo sapiens, 639-V) | IC50 (Homo sapiens, 639-V) | EC50 (Homo sapiens, 786-0) | IC50 (Homo sapiens, 786-0) | EC50 (Homo sapiens, 8305C) | IC50 (Homo sapiens, 8305C) | IC50 (Homo sapiens, 8505C) | EC50 (Homo sapiens, A 172) | IC50 (Homo sapiens, A 172) | IC50 (Homo sapiens, A204) | EC50 (Homo sapiens, A253) | IC50 (Homo sapiens, A253) | IC50 (Homo sapiens, A549) | IC50 (Homo sapiens, A673) | EC50 (Homo sapiens, A2058) | IC50 (Homo sapiens, A2058) | EC50 (Homo sapiens, A-375) | EC50 (Homo sapiens, ACHN) | IC50 (Homo sapiens, ACHN) | EC50 (Homo sapiens, AMO1) | IC50 (Homo sapiens, AMO1) | EC50 (Homo sapiens, AN3-CA) | IC50 (Homo sapiens, AN3-CA) | EC50 (Homo sapiens, ASPC1) | IC50 (Homo sapiens, ASPC1) | EC50 (Homo sapiens, AU565) | IC50 (Homo sapiens, AU565) | EC50 (Homo sapiens, AZ-521) | IC50 (Homo sapiens, AZ-521) | EC50 (Homo sapiens, BCPAP) | IC50 (Homo sapiens, BCPAP) | IC50 (Homo sapiens, BFTC-909) | EC50 (Homo sapiens, BGC-823) | IC50 (Homo sapiens, BGC-823) | EC50 (Homo sapiens, BL-41) | IC50 (Homo sapiens, BL-41) | EC50 (Homo sapiens, BT-474) | IC50 (Homo sapiens, BT-474) | EC50 (Homo sapiens, BT-549) | IC50 (Homo sapiens, BT-549) | EC50 (Homo sapiens, BXPC-3) | IC50 (Homo sapiens, BXPC-3) | EC50 (Homo sapiens, C2BBe1) | IC50 (Homo sapiens, C2BBe1) | EC50 (Homo sapiens, CAKI-2) | IC50 (Homo sapiens, CAKI-2) | IC50 (Homo sapiens, CAL-27) | EC50 (Homo sapiens, CAL-85-1) | IC50 (Homo sapiens, CAL-85-1) | EC50 (Homo sapiens, CAMA-1) | IC50 (Homo sapiens, CAMA-1) | EC50 (Homo sapiens, CHL-1) | IC50 (Homo sapiens, CHL-1) | EC50 (Homo sapiens, COLO 201) | IC50 (Homo sapiens, COLO 201) | EC50 (Homo sapiens, COLO 320) | IC50 (Homo sapiens, COLO 320) | IC50 (Homo sapiens, COLO-678) | IC50 (Homo sapiens, COLO-679) | IC50 (Homo sapiens, COLO-741) | EC50 (Homo sapiens, COR-L23) | IC50 (Homo sapiens, COR-L23) | EC50 (Homo sapiens, COR-L105) | IC50 (Homo sapiens, COR-L105) | EC50 (Homo sapiens, Calu-1) | IC50 (Homo sapiens, Calu-1) | EC50 (Homo sapiens, Calu-3) | IC50 (Homo sapiens, Calu-3) | IC50 (Homo sapiens, Calu-6) | EC50 (Homo sapiens, Capan-2) | IC50 (Homo sapiens, Capan-2) | IC50 (Homo sapiens, DBTRG-05MG) | IC50 (Homo sapiens, DMS-114) | IC50 (Homo sapiens, DOHH-2) | EC50 (Homo sapiens, DOV13) | IC50 (Homo sapiens, DOV13) | EC50 (Homo sapiens, DU-145) | IC50 (Homo sapiens, DU-145) | IC50 (Homo sapiens, DV-90) | EC50 (Homo sapiens, Daoy) | IC50 (Homo sapiens, Daoy) | EC50 (Homo sapiens, Detroit 562) | IC50 (Homo sapiens, Detroit 562) | IC50 (Homo sapiens, EBC-1) | EC50 (Homo sapiens, EFE-184) | IC50 (Homo sapiens, EFE-184) | IC50 (Homo sapiens, EFM-19) | EC50 (Homo sapiens, EFO-21) | IC50 (Homo sapiens, EFO-21) | EC50 (Homo sapiens, EFO-27) | IC50 (Homo sapiens, EFO-27) | IC50 (Homo sapiens, ESS-1) | EC50 (Homo sapiens, FaDu) | IC50 (Homo sapiens, FaDu) | EC50 (Homo sapiens, G-361) | IC50 (Homo sapiens, G-361) | IC50 (Homo sapiens, G-401) | EC50 (Homo sapiens, GAMG) | IC50 (Homo sapiens, GAMG) | EC50 (Homo sapiens, GCIY) | IC50 (Homo sapiens, GCIY) | EC50 (Homo sapiens, GMS-10) | IC50 (Homo sapiens, GMS-10) | EC50 (Homo sapiens, Granta-519) | IC50 (Homo sapiens, Granta-519) | IC50 (Homo sapiens, HCC44) | EC50 (Homo sapiens, HCC70) | IC50 (Homo sapiens, HCC70) | EC50 (Homo sapiens, HCC78) | IC50 (Homo sapiens, HCC78) | EC50 (Homo sapiens, HCC827) | IC50 (Homo sapiens, HCC827) | EC50 (Homo sapiens, HCC1187) | IC50 (Homo sapiens, HCC1187) | EC50 (Homo sapiens, HCC1395) | IC50 (Homo sapiens, HCC1395) | EC50 (Homo sapiens, HCC1569) | IC50 (Homo sapiens, HCC1569) | EC50 (Homo sapiens, HCC1806) | IC50 (Homo sapiens, HCC1806) | EC50 (Homo sapiens, HCC1954) | IC50 (Homo sapiens, HCC1954) | EC50 (Homo sapiens, HCC2935) | IC50 (Homo sapiens, HCC2935) | EC50 (Homo sapiens, HCC4006) | IC50 (Homo sapiens, HCC4006) | IC50 (Homo sapiens, HCT-15) | EC50 (Homo sapiens, HCT-116) | IC50 (Homo sapiens, HCT-116) | IC50 (Homo sapiens, HDQ-P1) | EC50 (Homo sapiens, HEC-1-A) | IC50 (Homo sapiens, HEC-1-A) | IC50 (Homo sapiens, HEC-1B) | EC50 (Homo sapiens, HEL 92.1.7) | IC50 (Homo sapiens, HEL 92.1.7) | EC50 (Homo sapiens, HMCB) | IC50 (Homo sapiens, HMCB)
-10.3812: Amax (8505c (thyroid))
0.513 µM: IC50 (CMK-86)
0.44 µM: EC50 (Homo sapiens, EBC-1)
1.24 µM: EC50 (Homo sapiens, COLO 205)
0.801 µM: EC50 (Homo sapiens, A549)
3.83 µM: EC50 (Homo sapiens, CAL-27)
1.14 µM: EC50 (Homo sapiens, 769-P)
-56.5199: Amax (769p (kidney))
3.38 µM: EC50 (Homo sapiens, BFTC-909)
0.195 µM: EC50 (CMK-86)
0.867 µM: EC50 (Homo sapiens, ESS-1)
1.84 µM: IC50 (Homo sapiens, CHP-212)
0.112 µM: EC50 (Homo sapiens, DMS-114)
2.2 µM: EC50 (HEY A8)
3.81 µM: IC50 (Homo sapiens, 22Rv1)
2.05 µM: IC50 (Homo sapiens, G-402)
2.13 µM: EC50 (Homo sapiens, COLO-741)
3.46 µM: IC50 (Homo sapiens, COLO 205)
1.87 µM: EC50 (Homo sapiens, 8505C)
0.0389 µM: EC50 (Homo sapiens, A204)
0.0275 µM: EC50 (Homo sapiens, HEC-1B)
1.48 µM: EC50 (Homo sapiens, Calu-6)
0.347 µM: EC50 (Homo sapiens, DBTRG-05MG)
0.00888 µM: EC50 (Homo sapiens, G-401)
0.483 µM: EC50 (Fu97)
1.59 µM: EC50 (Homo sapiens, HCC44)
0.99 µM: EC50 (Homo sapiens, 22Rv1)
4.08 µM: EC50 (Homo sapiens, CAL-12T) | IC50 (Homo sapiens, CAL-12T)
0.201 µM: EC50 (Homo sapiens, A2780)
0.126 µM: EC50 (Homo sapiens, CHP-212)
0.188 µM: EC50 (Homo sapiens, HGC-27)
0.506 µM: EC50 (Homo sapiens, HDQ-P1)
-43.2823: Amax (8305c (thyroid))
1.03 µM: EC50 (Homo sapiens, COLO-679)
4.53 µM: EC50 (Homo sapiens, HCT-15)
0.568 µM: EC50 (Homo sapiens, A673)
0.0482 µM: EC50 (Homo sapiens, EFM-19)
